Assay results reported in patent US10071974B2, “Morpholine and 1,4-oxazepane amides as somatostatin receptor subtype 4 (SSTR4) agonists” (Boehringer Ingelheim International GmbH, priority 2014, dated 2018).
pEC50: −log10 of the molar value. Like-named read-outs stand apart in the source and are kept apart here.

Columns and labels:
[1] = human, microsomes
[2] = Metabolic stability in pooled human liver microsomes; details: 1 μM test compound, 37° C.
[3] = target: human Somatostatin 4 Receptor (SSTR4) (Homo sapiens (Human), UniProt P31391); test: cAMP assay with human somatostatin 4 receptor (hSSTR4 expressing H4 cells); assay type: cell-based; details: read-out: SSTR4 agonism EC50
Sequence of human Somatostatin 4 Receptor (SSTR4) (P31391 whole entry): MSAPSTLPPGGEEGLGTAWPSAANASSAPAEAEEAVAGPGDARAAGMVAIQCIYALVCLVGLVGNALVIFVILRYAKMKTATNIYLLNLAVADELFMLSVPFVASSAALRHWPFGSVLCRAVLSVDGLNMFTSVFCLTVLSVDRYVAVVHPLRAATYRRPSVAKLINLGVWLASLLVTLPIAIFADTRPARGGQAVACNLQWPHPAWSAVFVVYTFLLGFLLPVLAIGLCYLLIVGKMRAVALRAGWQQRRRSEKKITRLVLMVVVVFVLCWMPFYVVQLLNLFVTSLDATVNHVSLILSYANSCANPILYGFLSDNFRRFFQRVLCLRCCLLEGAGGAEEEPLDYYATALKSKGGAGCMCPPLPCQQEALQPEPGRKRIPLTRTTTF

| Half-life t1/2 [1] | Half-life t1/2 [2] | pEC50 [3] | SMILES |
| --- | --- | --- | --- |
| >130 min |  |  | CC(C)(NC(=O)C1CNCCOC1)c1noc2c(Cl)cccc12 (single isomer, unassigned) [Example 73] |
|  | 100 min |  | Cn1nc(C(C)(C)NC(=O)[C@@H]2CNCCO2)c2cccc(Cl)c21 [Example 79] |
|  | >130 min | 8.39 | Cc1cccc2c(C(C)(C)NC(=O)[C@@H]3CNCCO3)nn(C)c12 [Example 83] |
